Measurements published in patent US20240101584A1, “TARGETED DELIVERY OF 1,2,4,5 TETRAOXANE COMPOUNDS AND THEIR USES” (Westlake University, priority 2021, published 2024).
Where two headings read alike, the source gives them in different places.

How the values were obtained:
NIH3T3 cells = test: MTT viability assay, non-cancerous NIH3T3 cells; format: cell-based; conditions: Mus musculus, NIH3T3
Procedure, shortened: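 The same panel also contained HepG2, HCT116, non-cancerous NIH3T3 and MDCK cells. Here, bEnd.3 is a mouse brain line, Hela is human cervix, MDA-MB-231 is mammary breast cancer and T47D is mammary ductal.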

[1] = system: MDA-MB-231 xenograft tumors; test: Mouse xenograft breast tumors (MDA-MB-231); format: in vivo, Nude mice; conditions: for histopathological observations of liver, heart, kidney, spleen and lungs: H&E staining, compared to the controls
Experimental: FIG. 12A is a graph showing the tumor volume of xenograft tumors versus time after s.c. injection of DMSO, PTX, compound 37b, or compound 48. Nude mice were injected s.c. with MDA-MB-231 cells (10^6) and randomly allocated to one of the six treatment groups (n=5): (i) DMSO, (ii) Paclitaxel (PTX), 5 mg/kg, (iii) compound 37b, 5 mg/kg, (iv) compound 37b, 10 mg/kg, (v) compound 48, 5 mg/kg, or (vi) compound 48, 10 mg/kg. When control animals (DMSO) began to appear tumor ulceration (25 days), all animals in the experiment were sacrificed and photographed.
FIG. 12B are photographs of the tumor from sacrificed animals of different treatment groups after 25 days. FIG. 12C is a graph showing the tumor weight of xenograft tumors versus time after s.c. injection of DMSO, PTX, compound 37b, or compound 48. Data are shown as mean±SEM. * P≤0.05 versus DMSO group. FIG. 12D are photographs showing the morphological observation of mice tissue treated with DMSO, paclitaxel, compound 37b, or compound 48 with H&E staining on heart, liver, kidney, lungs, and spleen tissues (200×).

MDCK cells = test: MTT viability assay, MDCK cells; format: cell-based, dog; conditions: Canis lupus familiaris, MDCK, 48 h incubation, mean, n = 3, read-out: IC50 against MDCK cells
Experimental: (§1) The anticancer activities of the exemplary compounds listed in Example 1 were tested against human cervix Hela cells, mammary breast cancer MDA-MB-231 cells, human hepatocellular HepG2 cells, human colorectal HCT116 cells, mammary ductal T47D cells, non-cancerous NIH3T3 cells, dog's kidney MDCK cells, and mouse brain bEnd.3 cells, respectively.

Huh7 = test: Viability IC50, Huh7 cells; format: cell-based; conditions: Homo sapiens, Huh-7; Table 12a
[2] = system: cytosolic hydroxyl radical in MDA-MB-231 cells; test: HKOH-1r hydroxyl radical detection in MDA-MB-231 cells; format: cell-based; conditions: about 5.5 h after addition
Experimental: FIG. 10 is a bar graph showing the relative mean fluorescence intensities of cells with HKOH-1r measured from the confocal images of MDA-MB-231 cells after treatment with compounds 48 and 37b, respectively. Scale bars represent 50 μm. Data are mean±s.e.m., n=20 cells for HKOH-1. Statistical significance was determined as ***P≤0.01 by Student's t test.
Reactive oxygen species is associated with the event of ferroptotic cell death. Oxidative stress induced by 48 and 37b can be indicated by the fluorogenic probe, HKOH-1r, that emits at 520 nm upon oxidation by cytosolic hydroxyl radical. By using HKOH-1r, it is possible to specify the type of ROS that tetraoxanes can produce in MDA-MB-231 cells.
Confocal images of MDA-MB-231 cells after tetraoxane treatment were captured and the relative mean fluorescence intensities of cells with HKOH-1r were quantified (FIG. 10). […] This phenomenon is consistent with one of the features of ferroptosis.

PLC = test: Viability IC50, PLC cells; format: cell-based; conditions: Table 12a
HeyA8 cells = test: CellTiter-Glo viability, adherent HeyA8 ovarian cancer cells; format: cell-based; conditions: HEY A8; adherent cancer cells; CellTiter-Glo, 48 hrs, n = 3
MDA-MB-231 cells [3] = test: Ferroptosis inhibitor rescue (Fer-1, liproxstatin-1) in MDA-MB-231 cells; format: cell-based; conditions: 24 h; for effect of Fer-1 on MDA-MB-231 cell death: Fer-1 50 μM
Experimental: FIG. 8A is a bar graph showing the effect of Fer-1 (50 μM) on MDA-MB-231 cells treated with compounds 37b, 37a, and 30b, respectively, at the indicated concentrations for 24 h. […], **P≤0.01, ***P≤0.001 versus non-pretreated cells, N.S., no statistically significant change. Data represent mean±SD, n=3 biologically independent samples. All P values were determined using two-tailed Student's t-test.
FIG. 8B is a bar graph showing the effect of Fer-1 (50 μM) on MDA-MB-231 cells treated with compounds 6b, 48, 30a, and 37f, respectively, at the indicated concentrations for 24 h. *P≤0.01, **P≤0.002, ***P≤0.001 versus non-pretreated cells. Data represent mean±SD, n=3 biologically independent samples. FIG. 8C is a bar graph showing the effect of Fer-1 and DFO on MDA-MB-231 cells treated with compounds 56 and 53, respectively, at the indicated concentrations for 24 h. *P≤0.01, **P≤0.002, ***P≤0.001 versus non-pretreated cells. All P values were determined using two-tailed Student's t-test.
FIG. 9 is a bar graph showing the effect of liproxstatin ([…]) on MDA-MB-231 cells treated with compounds 48 and 37b, respectively, at the indicated concentrations for 24 h. **P≤0.01 versus non-pretreated cells. Data represent mean±SD, n=3 biologically independent samples. All P values were determined using two-tailed Student's t-test.
Fer-1 was used to investigate the cell death pathway induced by the compounds described herein. Liproxstatin-1 was used to further confirm whether 48 and 37b triggered off ferroptosis in MDA-MB-231 cells.

T47D cells = test: MTT viability assay, T47D cells; format: cell-based; conditions: for IC50: Homo sapiens, T47D
Experimental: as §1

U2OS = test: Viability IC50, U2OS cells; format: cell-based; conditions: Homo sapiens, Table 12a
HCT116 cells = test: MTT viability assay, HCT116 cells; format: cell-based, human; conditions: for IC50: Homo sapiens, HCT-116; for fold more cytotoxic to HCT116 cells than OZ277: comparator OZ277; for fold more cytotoxic than OZ439 on HCT116: comparator OZ439 (literature)
Experimental: as §1

MDA-MB-231 cells [4] = test: MTT viability assay, MDA-MB-231 cells; format: cell-based; conditions: for IC50: Homo sapiens; for fold more potent than FINO2 in eradicating MDA-MB-231 cells: comparator FINO2; for fold more cytotoxic than OZ439 on MDA-MB-231: comparator OZ439 (literature)
Procedure, shortened: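 Compounds were screened for anticancer activity across a cell panel that included human cervix Hela, mammary breast cancer MDA-MB-231, mammary ductal T47D and mouse brain bEnd.3 cells.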

[5] = MTT, 48 h incubation, mean, n = 3, read-out: IC50 against NIH3T3 cells
[6] = Table 12b, read-out: IC50 NIH3T3
[7] = MTT, 48 h incubation, mean, n = 3, read-out: IC50 against T47D cells
[8] = MTT, 48 h incubation, mean, n = 3, read-out: IC50 against HCT116 cells
[9] = Table 12b, read-out: IC50 HCT116
[10] = MDA-MB-231, Table 12b, read-out: IC50 MDA-MB-231

SMILES	IC50 (NIH3T3 cells; [5]) [µM]	IC50 (NIH3T3 cells; [6]) [µM]	histopathological observations of liver, heart, kidney, spleen and lungs [1]	IC50 (MDCK cells) [µM]	IC50 (Huh7) [µM]	hydroxyl radical (HKOH-1r fluorescence) [2]	IC50 (PLC) [µM]	IC50 (HeyA8 cells) [µM]	effect of liproxstatin-1 pretreatment on MDA-MB-231 cell death (MDA-MB-231 cells [3])	effect of Fer-1 on MDA-MB-231 cell death (MDA-MB-231 cells [3])	IC50 (T47D cells; [7]) [µM]	IC50 (T47D cells; Table 12b, read-out: IC50 T47D) [µM]	selectivity index (IC50 of NIH3T3 divided by IC50 on T47D) (T47D cells; Table 12b, value in bracket)	IC50 (U2OS) [µM]	IC50 (HCT116 cells; [8]) [µM]	IC50 (HCT116 cells; [9]) [µM]	fold more cytotoxic to HCT116 cells than OZ277 (HCT116 cells) [fold]	fold more cytotoxic than OZ439 on HCT116 (HCT116 cells) [fold]	IC50 (MDA-MB-231 cells [4]; [10]) [µM]	fold more potent than FINO2 in eradicating MDA-MB-231 cells (MDA-MB-231 cells [4])	also measured
CC(C)(C)C1CCC2(CC1)OOC1(CCC(OC(=O)NCCC[P+](c3ccccc3)(c3ccccc3)c3ccccc3)CC1)OO2.[Br-] (centres unmarked) [Compound 37b, (3-((((12-(tert-butyl)-7,8,15,16-tetraoxadispiro[5.2.59.26]hexadecan-3-yl)oxy)carbonyl)amino)propyl)triphenylphosphonium bromide]	4.6	4.6 ± 1.9	no histological alterations	9.5	3.8 ± 0.9	significant amount of hydroxyl radical was observed	2.7 ± 0.02	1.4 ± 0.07	prevented the cell death	subverted MDA-MB-231 cell death	0.62	0.6 ± 0.1	(>7.6)	3.4 ± 0.2	0.6 ± 0.3	0.6 ± 0.3	113	106	0.4 ± 0.05	≥ 25 fold	tumor growth compared with vehicle control ([1]; 10 mg/kg, MDA-MB-231 xenograft, 25 days): effective in inhibiting tumor growth; selectivity index (IC50 of NIH3T3 divided by IC50 on HCT116) (HCT116 cells; Table 12b, value in bracket): (>7.6); selectivity index (IC50 of NIH3T3 divided by IC50 on MDA-MB-231) (MDA-MB-231 cells [4]; Table 12b, value in bracket): (>11.5); fold more cytotoxic to MDA-MB-231 cells than OZ277 (MDA-MB-231 cells [4]; comparator OZ277): 87 fold; fold more cytotoxic than OZ439 on MDA-MB-231 (MDA-MB-231 cells [4]): 64 fold
CC(C)(C)C1CCC2(CC1)OOC1(CCC(OC(=O)NCCC[N+](C)(Cc3ccccc3)Cc3ccccc3)CC1)OO2.[I-] (centres unmarked) [Compound 48, N,N-dibenzyl-3-((((12-(tert-butyl)-7,8,15,16-tetraoxadispiro[5.2.59.26]hexadecan-3-yl)oxy)carbonyl)amino)-N-methylpropan-1-aminium iodide]	29 ± 5.7	29 ± 5.7	no histological alterations	28.2	5.2 ± 0.4	significant amount of hydroxyl radical was observed	3.9 ± 0.6	2.3 ± 0.7	prevented the cell death	subverted MDA-MB-231 cell death	1.7	1.7 ± 0.3	(>17)	4.4 ± 0.6	2.2 ± 0.3	2.2 ± 0.3	44	29	2.4 ± 0.7	at least 4 fold	IC50 (NIH3T3 cells; Table 13, experimental data, MTT, 48 hrs, n = 3, read-out: IC50 NIH3T3): 29 ± 5.7 µM; tumor size ([1]; 5 mg/kg and 10 mg/kg, MDA-MB-231 xenograft, 25 days): reduced the tumor size; abnormal behavior or weight loss during treatment period ([1]; MDA-MB-231 xenograft mice, entire treatment period): no abnormal behavior or weight loss; IC50 (T47D cells; Table 13, experimental data, MTT, 48 hrs, n = 3, read-out: IC50 T47D): 1.7 ± 0.3 µM; selectivity index (IC50 of NIH3T3 divided by IC50 on T47D) (T47D cells; Table 13, value in bracket): (>17); IC50 (HCT116 cells; Table 13, experimental data, MTT, 48 hrs, n = 3, read-out: IC50 HCT116): 2.2 ± 0.3 µM; selectivity index (IC50 of NIH3T3 divided by IC50 on HCT116) (HCT116 cells; Table 13, value in bracket): (>13); IC50 (MDA-MB-231 cells [4]; MDA-MB-231, 48 h, MTT, 48 h incubation, mean, n = 3, read-out: IC50 against MDA-MB-231 cells): < 4 µM; IC50 (MDA-MB-231 cells [4]; MDA-MB-231, 48 h, Table 13, experimental data, MTT, 48 hrs, n = 3, read-out: IC50 MDA-MB-231): 2.4 ± 0.7 µM; selectivity index (IC50 of NIH3T3 divided by IC50 on MDA-MB-231) (MDA-MB-231 cells [4]; Table 13, value in bracket): (>12); fold more cytotoxic than OZ439 on MDA-MB-231 (MDA-MB-231 cells [4]): 10 fold
